Data published in paper PMC4491109, “Synthesis and anticonvulsant activity of new N-phenyl-2-(4-phenylpiperazin-1-yl)acetamide derivatives” (Medicinal Chemistry Research, 2015).
Read-outs that look alike come from different tables or passages of the source.

Experiments:
[1] = tested on: pentylenetetrazole-induced seizures; test: scPTZ test after p.o. administration in rats (quantification); type: in vivo; conditions: for ED50: Rattus norvegicus, po, at TPE, 95 % confidence limits in parentheses
Procedure: On the basis of the preliminary data in rats, compound 20 was chosen for quantification of the pharmacological parameters (ED50 and TD50) after p.o. application. The quantitative evaluation of the MES median effective dose (ED50) and toxic dose (TD50) was performed at previously estimated TPE—2 h.
(§1) The scPTZ test utilizes a dose of pentylenetetrazole (85 mg/kg in mice) that produces clonic seizures lasting for a period of at least 5 s in 97 % (CD97) of animals tested. PTZ is administered 0.5 and 4 h after injections of tested compounds, and observation is carried out for 30 min. In the control groups, the first episode of clonic convulsions is observed between 6 and 15 min of observation. The absence of clonic convulsions in the observed time period of […] is interpreted as the compound’s ability to protect against PTZ-induced seizures.

[2] = tested on: maximal electroshock (MES) seizures; test: Maximal electroshock (MES) test, i.p. administration in mice; type: in vivo; conditions: Mus musculus, ip, doses of 30, 100 or 300 mg/kg
Procedure: (§2) Considering the aforementioned facts, the profile of anticonvulsant activity of final compounds 3–24 was established in the MES and scPTZ tests, after intraperitoneal (i.p.) injection in mice at doses of 30, 100 and 300 mg/kg. An observation was carried out at two different time intervals—0.5 and 4 h. Furthermore, in addition to the primary anticonvulsant screening, the acute neurological toxicity (NT) was determined in mice by the rotarod test.
(§3) Compounds 3–24 were pharmacologically preevaluated within the Antiepileptic Drug Development (ADD) Program in Epilepsy Branch, Neurological Disorders Program, National Institute of the Neurological and Communicative Disorders and Stroke (NIH/NINDS), Rockville, MD, USA, by using procedures described elsewhere (Krall et al., [1978]; Kupferberg, [1989]).
(§4) Phase I of the in vivo studies involved three tests: MES, scPTZ and rotarod test for NT. Male albino mice (CF#1 strain, weighing 18–25 g) and male albino rats (Sprague–Dawley) were used as experimental animals. The animals were housed in metabolic cages and allowed free access to food and water. The compounds were injected intraperitoneally to mice as a suspension in 0.5 % methylcellulose/water mixture at a dose level 30, 100 or 300 mg/kg with anticonvulsant activity and neurotoxicity assessment at 0.5 and 4 h after administration. Promising derivatives from phase I underwent phase VIa in which they were administrated orally into rats at a fixed dose of 30 mg/kg for both MES and the rotarod toxicity determination at five pretreatment times: 0.25, 0.5, 1, 2, 4 h. Groups of eight mice or four rats are employed.
(§5) In the MES screen, an electrical stimulus of 0.2 s in duration (50 mA in mice and 150 mA in rats) is delivered via corneal electrodes primed with an electrolyte solution containing an anesthetic agent. The endpoint is the tonic extension of the hind limbs. In the control groups, the procedures cause immediate hind limb tonic extension. Mice not displaying hind limb tonic extension are considered to be protected from seizures.

[3] = tested on: pentylenetetrazole-induced seizures; test: Subcutaneous pentylenetetrazole (scPTZ) test, i.p. administration in mice; type: in vivo; conditions: Mus musculus, ip, doses of 30, 100 or 300 mg/kg
Procedure: as §2, §3, §4, §1

[4] = tested on: mice (rotarod test); test: Neurotoxicity screening (NT), rotarod test, i.p. administration in mice; type: in vivo; conditions: male, CF#1, mouse, in vivo
Procedure: as §2, §4
The neurological toxicity test (NT) induced by a compound was detected in mice or rats using standardized rotarod test (Dunham and Miya, [1957]). Untreated control mice or rats, when placed on the rod, can maintained their equilibrium for a prolonged time period.

[5] = in vivo; conditions: male, Sprague-Dawley, rat, po
[6] = tested on: maximal electroshock (MES) seizures; test: MES test after oral administration in rats (screen and quantification); type: in vivo; conditions: for ED50: Rattus norvegicus, po, at TPE, 95 % confidence limits in parentheses; for PI (TD50/ED50), MES: protective index for MES
Procedure: This screen discloses the time of onset, the approximate time of peak effect (TPE) and the duration of anticonvulsant activity or neurotoxicity.
The quantitative evaluation of the MES median effective dose (ED50) and toxic dose (TD50) was performed at previously estimated TPE—2 h.
as §4
as §5, with “In the control groups, the procedures cause immediate hind limb tonic extension.” left out

[7] = tested on: rats (rotarod test); test: Neurotoxicity, rotarod test after p.o. administration in rats; conditions: at TPE, 95 % confidence limits in parentheses
[8] = tested on: 6-Hz psychomotor seizures; test: Psychomotor seizure test (6-Hz), i.p. in mice; type: in vivo; conditions: 100 mg/kg
Description: In the next step of pharmacological investigations, four compounds 12, 19, 20 and 24 were chosen for the evaluation of anticonvulsant activity in the psychomotor 6-Hz test (Table 4). The selection was made randomly as a part of the search of molecules providing anti-6-Hz protection among chemically diversified compounds pursued in the NIH/NINDS. It should be noticed that 6-Hz screen has been validated as a model of therapy-resistant epilepsy (Barton et al., [2001]).
The 6-Hz model is an alternative electroshock paradigm that uses low-frequency (6 Hz), long-duration (3 s) electrical stimulation. Corneal stimulation (0.2 ms duration monopolar rectangular pulses at 6-Hz for 3 s) was delivered by a constant-current device. During the stimulation, mice were manually restrained and released into the observation cage immediately after the current application. The seizures manifest in “stunned” posture associated with rearing, forelimb, automatic movements and clonus, twitching the vibrissae and Straub–tail. The duration of the seizure activity ranges from 60 to 120 s in untreated animals. At the end of the seizure, animals resume their normal exploratory behavior. The experimental end point is protection against the seizure. The animal is considered to be protected if it resumes its normal exploratory behavior within 10 s from the stimulation (Brown et al., [1953]).

[9] = tested on: 6-Hz psychomotor seizures; design: method as in Rogawski, 2006; conditions: ref Rogawski, 2006; cited from earlier work
[10] = tested on: MES seizures; design: method as in Rogawski, 2006; conditions: even at high doses, ref Rogawski, 2006; cited from earlier work
[11] = tested on: PTZ seizures; design: method as in Rogawski, 2006; conditions: even at high doses, ref Rogawski, 2006; cited from earlier work
[12] = 0.5 h, read-out: MES, minimum dose effective in half or more animals tested, 0.5 h
[13] = 4 h, read-out: MES, minimum dose effective in half or more animals tested, 4 h
[14] = 0.5 h, read-out: scPTZ, minimum dose effective in half or more animals tested, 0.5 h
[15] = 4 h, read-out: scPTZ, minimum dose effective in half or more animals tested, 4 h

SMILES | ED50 [1] | minimal effective dose [2, 12] | minimal effective dose [2, 13] | minimal effective dose [3, 14] | minimal effective dose [3, 15] | TD50 at 2 h [5] | ED50 [6] | MES, number of rats protected/number of rats tested, 0.25 h ([6]; p.o., 30 mg/kg) | MES, number of rats protected/number of rats tested, 0.5 h ([6]; p.o., 30 mg/kg) | MES, number of rats protected/number of rats tested, 1 h ([6]; p.o., 30 mg/kg) | MES, number of rats protected/number of rats tested, 2 h ([6]; p.o., 30 mg/kg, 2 h) | MES, number of rats protected/number of rats tested, 4 h ([6]; p.o., 30 mg/kg) | PI (TD50/ED50), MES ([6]; p.o.) | other results
O=C1NC(=O)C(c2ccccc2)(c2ccccc2)N1 [Phenytoin, reference compound] | > 500 mg/kg | 30 mg/kg | 30 mg/kg | > 300 mg/kg | > 300 mg/kg | > 100 mg/kg | 28.1 mg/kg | 1/4 | 4/4 | 3/4 | 3/4 | 3/4 | >3.6 (MES) | NT (rotarod), minimum dose neurotoxic in half or more animals tested, 0.5 h ([4]; 0.5 h): 100 mg/kg; NT (rotarod), minimum dose neurotoxic in half or more animals tested, 4 h ([4]; 4 h): 100 mg/kg
CCCC(CCC)C(=O)O [Valproic acid] | 646 mg/kg | – | – | – | – | – | – | – | – | – | – | – | 1.6 | PI (TD50/ED50), scPTZ ([1]; protective index for scPTZ): 1.2; TD50 NT (rotarod) [7]: 784 (503–1176) mg/kg
Cl.O=C(CN1CCN(c2cccc(C(F)(F)F)c2)CC1)Nc1cccc(C(F)(F)F)c1 [Compound 20, N-[3-(Trifluoromethyl)phenyl]-2-[4-[3-(trifluoromethyl)phenyl]piperazin-1-yl]acetamide monohydrochloride] | – | > 300 mg/kg | 100 mg/kg | > 300 mg/kg | > 300 mg/kg | > 500 mg/kg | 52.3 mg/kg | 0/4 | 1/4 | 0/4 | 2/4 | 0/4 | >9.56 (MES) | 6-Hz, % of animals protected, 0.25 h ([8]; 0.25 h): 25%; 6-Hz, % of animals protected, 2 h ([8]; 2 h): 25%; 6-Hz, % of animals protected, 4 h ([8]; 4 h): 25%; 6-Hz, number of mice protected/number of mice tested, 0.25 h ([8]; current 32 mA, 0.25 h): 1/4; 6-Hz, number of mice protected/number of mice tested, 0.5 h ([8]; current 32 mA, 0.5 h): 0/4; 6-Hz, number of mice protected/number of mice tested, 1 h ([8]; current 32 mA, 1 h): 0/4; 6-Hz, number of mice protected/number of mice tested, 2 h ([8]; current 32 mA, 2 h): 1/4; 6-Hz, number of mice protected/number of mice tested, 4 h ([8]; current 32 mA, 4 h): 1/4; MES, % of animals protected, 2 h ([6]; p.o., 30 mg/kg, 2 h): 50%
CC[C@@H](C(N)=O)N1CCCC1=O [levetiracetam] | – | – | – | – | – | – | – | – | – | – | – | – | – | effectiveness in the 6-Hz psychomotor seizure model (in words) [9]: high effectiveness; activity against classical MES seizures (in words) [10]: inactive; activity against classical PTZ seizures (in words) [11]: inactive
